Assay results: US20060276340A1, “HERBICIDE COMPOSITION COMPRISING PYRIBAMBENZ-PROPYL OR PYRIBAMBENZ-ISOPROPYL” (Zhejiang Chem-Tech Group Co., Ltd., priority 2003, published 2006)
Entries after “also recorded” stand apart in the source; their conditions may differ.

Experiments:
Type in all cases: in vivo
Polypogon fugax [1] = experiment: greenhouse pot test, Tables 1-2; details: POLFU 3-4 leaves
Procedure: (§1) The test soil is a formulated sandy loam soil. 9.5 centimeter diameter pots are used for herbicidal activity test.
(§2) The soil in the pot for the pre-emergence test was sprayed one day after planting. The preparation liquid for the treatment prepared by mixing individual single-herbicides was diluted with water to the desired dosage.
(§3) The pots for post-emergence treatment are placed into a greenhouse and incubated for 7 to 9 days, and then subjected to leave treatment by spraying. The preparation liquid for the treatment prepared by mixing individual single-herbicides was diluted with water to the desired dosage.
(§4) The treated pots stood for one day, then were placed in a greenhouse and watered regularly. The herbicidal activities of the compositions were evaluated by visual examination after incubating for 14 to 21 days.
(§5) The herbicidal activities of the compositions were evaluated by plant symptoms such as stunting, deformity, chlorosis, and whitening. 0 represents that the compositions have no herbicidal effect or have safety to crops. 100 represents that the weeds or crops were completely killed.

Alopecurus aequalis [2] = experiment: greenhouse pot test, Tables 1-2
Procedure: as §1, §2, §3, §4, §5

Poa annua [3] = experiment: greenhouse pot test, Tables 1-2; details: POAAN 3 leaves
Procedure: as §1, §2, §3, §4, §5

Beckmannia syzigachne [4] = experiment: greenhouse pot test, Tables 1-2; details: BECSY 2 leaves
Procedure: as §1, §2, §3, §4, §5

Digitrria sanguinalis = experiment: greenhouse pot test, Tables 1-2; details: DIGSA 3 leaves
Procedure: as §1, §2, §3, §4, §5

rape = experiment: safety to crops; details: for selectivity between rape and weeds: in vivo; for safety to crops: rape / objective crops
Procedure: The herbicidal activities of the compositions were evaluated by plant symptoms such as stunting, deformity, chlorosis, and whitening. 0 represents that the compositions have no herbicidal effect or have safety to crops. 100 represents that the weeds or crops were completely killed. [table]

Cerastium arvense [5] = experiment: greenhouse pot test, post-emergence early stage treatment
Procedure: as §1, §3, §4, §5

Galium aparine [6] = experiment: as above
Procedure: as §1, §3, §4, §5

Poa annua [7] = experiment: as above
Procedure: as §1, §3, §4, §5

Beckmannia syzigachne [8] = experiment: as above; details: BECSY 2˜3 leaves
Procedure: as §1, §3, §4, §5

Alopercurus japonicus [9] = experiment: as above; details: ALOJA
Procedure: as §1, §3, §4, §5

weeds in rape field = experiment: weed control in rape field, descriptive statements; details: for weed control: Alopecurus aequalis, Alopecurus japonicus, Stellaria aquatica, Stallaria media and Atellaria alsine; for effectiveness of control: second important weeds in rape field: Poa annua, sclerochloa kengiana, Beckmannia syzigachne, Polypogon fugax, broadleaf Cardlamine hirsuta, Galium aparine, Lapsana apogonoides, Hemistepta lyrata
Cerastium arvense [10] = experiment: greenhouse pot test, post-emergence treatment; details: CERAR 6 leaves
Procedure: as §1, §3, §4, §5

Polypogon fugax [11] = experiment: greenhouse pot test, post-emergence treatment; details: POLFU 4˜4.5 leaves
Procedure: as §1, §3, §4, §5

Galium aparine [12] = experiment: greenhouse pot test, post-emergence treatment
Procedure: as §1, §3, §4, §5

Alopecurus aequalis [13] = experiment: greenhouse pot test, post-emergence treatment; details: ALOAE 3 leaves
Procedure: as §1, §3, §4, §5

Poa annua [14] = experiment: greenhouse pot test, post-emergence treatment; details: POAAN
Procedure: as §1, §3, §4, §5

Veronica didyma = experiment: greenhouse pot test, post-emergence treatment; details: VERDI
Procedure: as §1, §3, §4, §5

Alopercurus japonicus [15] = experiment: greenhouse pot test, post-emergence treatment; details: ALOJA
Procedure: as §1, §3, §4, §5

Cerastium arvense [16] = experiment: greenhouse pot test, pre-emergence treatment; details: CERAR
Procedure: as §1, §2, §4, §5

Polypogon fugax [17] = experiment: greenhouse pot test, pre-emergence treatment; details: POLFU
Procedure: as §1, §2, §4, §5

Galium aparine [18] = experiment: greenhouse pot test, pre-emergence treatment; details: GALAP
Procedure: as §1, §2, §4, §5

Alopecurus aequalis [19] = experiment: greenhouse pot test, pre-emergence treatment; details: ALOAE
Procedure: as §1, §2, §4, §5

COc1cc(OC)nc(Oc2ccccc2CNc2ccc(C(=O)OC(C)C)cc2)n1 [Pyribambenz-isopropyl, iso-propyl 4-({2-[(4,6-dimethoxypyrimidin-2-yl)oxy]benzyl}amino)benzoate]
visual evaluation of weed effects (Polypogon fugax [1]; 30 g/ha): 80% | visual evaluation of weed effects (Polypogon fugax [1]; 45 g/ha): 80% | visual evaluation of weed effects (Alopecurus aequalis [2]; ALOAE 0 leaf, 30 g/ha): 90% | visual evaluation of weed effects (Alopecurus aequalis [2]; ALOAE 0 leaf, 45 g/ha): 90% | visual evaluation of weed effects (Alopecurus aequalis [2]; ALOAE 3 leaves, 30 g/ha): 100% | visual evaluation of weed effects (Alopecurus aequalis [2]; ALOAE 3 leaves, 45 g/ha): 100% | visual evaluation of weed effects (Poa annua [3]; 30 g/ha): 60% | visual evaluation of weed effects (Poa annua [3]; 45 g/ha): 90% | visual evaluation of weed effects (Beckmannia syzigachne [4]; 30 g/ha): 30% | visual evaluation of weed effects (Beckmannia syzigachne [4]; 45 g/ha): 30% | visual evaluation of weed effects (Digitrria sanguinalis; 30 g/ha): 60% | visual evaluation of weed effects (Digitrria sanguinalis; 45 g/ha): 80% | selectivity between rape and weeds (rape): good selectivity | safety to crops (rape): safety toward rape | visual evaluation of weed effects (Cerastium arvense [5]; CERAR 3˜4 leaves, 30 g/ha): 40% | visual evaluation of weed effects (Cerastium arvense [5]; CERAR 3˜4 leaves, 45 g/ha): 60% | visual evaluation of weed effects (Cerastium arvense [5]; CERAR, 30 g/ha): 80% | visual evaluation of weed effects (Cerastium arvense [5]; CERAR, 45 g/ha): 90% | visual evaluation of weed effects (Galium aparine [6]; GALAP 7˜8 leaves, 30 g/ha): 0% | visual evaluation of weed effects (Galium aparine [6]; GALAP 7˜8 leaves, 45 g/ha): 10% | visual evaluation of weed effects (Galium aparine [6]; GALAP, 30 g/ha): 30% | visual evaluation of weed effects (Galium aparine [6]; GALAP, 45 g/ha): 50% | visual evaluation of weed effects (Poa annua [7]; POAAN 2˜3 leaves, 30 g/ha): 80% | visual evaluation of weed effects (Poa annua [7]; POAAN 2˜3 leaves, 45 g/ha): 95% | visual evaluation of weed effects (Poa annua [7]; POAAN, 30 g/ha): 95% | visual evaluation of weed effects (Poa annua [7]; POAAN, 45 g/ha): 98% | visual evaluation of weed effects (Beckmannia syzigachne [8]; 30 g/ha): 50% | visual evaluation of weed effects (Beckmannia syzigachne [8]; 45 g/ha): 70% | visual evaluation of weed effects (Alopercurus japonicus [9]; 30 g/ha): 90% | visual evaluation of weed effects (Alopercurus japonicus [9]; 45 g/ha): 90% | weed control (weeds in rape field): high-effectively control; also recorded: effective weed control | effectiveness of control (weeds in rape field): moderate | visual evaluation of weed effects (Cerastium arvense [10]; 30 g/ha): 50% | visual evaluation of weed effects (Cerastium arvense [10]; 45 g/ha): 60% | visual evaluation of weed effects (Polypogon fugax [11]; 30 g/ha): 50% | visual evaluation of weed effects (Polypogon fugax [11]; 45 g/ha): 60% | visual evaluation of weed effects (Galium aparine [12]; GALAP 7˜8 leaves, 30 g/ha): 0% | visual evaluation of weed effects (Galium aparine [12]; GALAP 7˜8 leaves, 45 g/ha): 0% | visual evaluation of weed effects (Galium aparine [12]; GALAP, 30 g/ha): 20% | visual evaluation of weed effects (Galium aparine [12]; GALAP, 45 g/ha): 20% | visual evaluation of weed effects (Alopecurus aequalis [13]; 30 g/ha): 80% | visual evaluation of weed effects (Alopecurus aequalis [13]; 45 g/ha): 90% | visual evaluation of weed effects (Poa annua [14]; 30 g/ha): 85% | visual evaluation of weed effects (Poa annua [14]; 45 g/ha): 90% | visual evaluation of weed effects (Veronica didyma; 30 g/ha): 20% | visual evaluation of weed effects (Veronica didyma; 45 g/ha): 30% | visual evaluation of weed effects (Alopercurus japonicus [15]; 30 g/ha): 85% | visual evaluation of weed effects (Alopercurus japonicus [15]; 45 g/ha): 90%

CCCOC(=O)c1ccc(NCc2ccccc2Oc2nc(OC)cc(OC)n2)cc1 [Pyribambenz-propyl, propyl 4-({2-[(4,6-dimethoxypyrimidin-2-yl)oxy]benzyl}amino)benzoate]
visual evaluation of weed effects (Polypogon fugax [1]; 30 g/ha): 70% | visual evaluation of weed effects (Polypogon fugax [1]; 45 g/ha): 80% | visual evaluation of weed effects (Alopecurus aequalis [2]; ALOAE 0 leaf, 30 g/ha): 90% | visual evaluation of weed effects (Alopecurus aequalis [2]; ALOAE 0 leaf, 45 g/ha): 90% | visual evaluation of weed effects (Alopecurus aequalis [2]; ALOAE 3 leaves, 30 g/ha): 100% | visual evaluation of weed effects (Alopecurus aequalis [2]; ALOAE 3 leaves, 45 g/ha): 100% | visual evaluation of weed effects (Poa annua [3]; 30 g/ha): 20% | visual evaluation of weed effects (Poa annua [3]; 45 g/ha): 30% | visual evaluation of weed effects (Beckmannia syzigachne [4]; 30 g/ha): 0% | visual evaluation of weed effects (Beckmannia syzigachne [4]; 45 g/ha): 0% | visual evaluation of weed effects (Digitrria sanguinalis; 30 g/ha): 60% | visual evaluation of weed effects (Digitrria sanguinalis; 45 g/ha): 80% | selectivity between rape and weeds (rape): good selectivity | safety to crops (rape): safety toward rape | visual evaluation of weed effects (Cerastium arvense [5]; CERAR 3˜4 leaves, 30 g/ha): 40% | visual evaluation of weed effects (Cerastium arvense [5]; CERAR 3˜4 leaves, 45 g/ha): 50% | visual evaluation of weed effects (Cerastium arvense [5]; CERAR, 30 g/ha): 80% | visual evaluation of weed effects (Cerastium arvense [5]; CERAR, 45 g/ha): 85% | visual evaluation of weed effects (Galium aparine [6]; GALAP 7˜8 leaves, 30 g/ha): 0% | visual evaluation of weed effects (Galium aparine [6]; GALAP 7˜8 leaves, 45 g/ha): 30% | visual evaluation of weed effects (Galium aparine [6]; GALAP, 30 g/ha): 20% | visual evaluation of weed effects (Galium aparine [6]; GALAP, 45 g/ha): 20% | visual evaluation of weed effects (Poa annua [7]; POAAN 2˜3 leaves, 30 g/ha): 85% | visual evaluation of weed effects (Poa annua [7]; POAAN 2˜3 leaves, 45 g/ha): 95% | visual evaluation of weed effects (Poa annua [7]; POAAN, 30 g/ha): 95% | visual evaluation of weed effects (Poa annua [7]; POAAN, 45 g/ha): 98% | visual evaluation of weed effects (Beckmannia syzigachne [8]; 30 g/ha): 50% | visual evaluation of weed effects (Beckmannia syzigachne [8]; 45 g/ha): 70% | visual evaluation of weed effects (Alopercurus japonicus [9]; 30 g/ha): 90% | visual evaluation of weed effects (Alopercurus japonicus [9]; 45 g/ha): 90% | visual evaluation of weed effects (Cerastium arvense [16]; 30 g/ha): 70% | visual evaluation of weed effects (Cerastium arvense [16]; 45 g/ha): 80% | visual evaluation of weed effects (Polypogon fugax [17]; 30 g/ha): 60% | visual evaluation of weed effects (Polypogon fugax [17]; 45 g/ha): 80% | visual evaluation of weed effects (Galium aparine [18]; 30 g/ha): 0% | visual evaluation of weed effects (Galium aparine [18]; 45 g/ha): 40% | visual evaluation of weed effects (Alopecurus aequalis [19]; 30 g/ha): 95% | visual evaluation of weed effects (Alopecurus aequalis [19]; 45 g/ha): 95% | weed control (weeds in rape field): high-effectively control; also recorded: effective weed control | effectiveness of control (weeds in rape field): moderate | visual evaluation of weed effects (Galium aparine [12]; GALAP, 30 g/ha): 20% | visual evaluation of weed effects (Galium aparine [12]; GALAP, 45 g/ha): 20% | visual evaluation of weed effects (Poa annua [14]; 30 g/ha): 85% | visual evaluation of weed effects (Poa annua [14]; 45 g/ha): 90% | visual evaluation of weed effects (Veronica didyma; 30 g/ha): 20% | visual evaluation of weed effects (Veronica didyma; 45 g/ha): 30% | visual evaluation of weed effects (Alopercurus japonicus [15]; 30 g/ha): 85% | visual evaluation of weed effects (Alopercurus japonicus [15]; 45 g/ha): 90%
